From patent US20200121697A1, “METHODS FOR DIAGNOSING AND TREATING CACHEXIA” (Aurin Biotech Inc., priority 2017, published 2020)

Columns and labels:
[1] = target: TNFα (Homo sapiens, UniProt P01375); assay: Binding of APAC and DAS to TNFα / TNFα peptide; settings: 0-5 nmol/ml of DAS and 0-175 nmol/ml of TNFα peptide, FIG. 10
Experimental: (§1) A 12-mer peptide spot array was synthesized on a cellulose membrane using a Semi-automated AutoSpot robot (INTAVIS, USA) covering the 233 amino acid sequence of TNFα. A total of 112 peptides, each shifted by 2 amino acids were synthesized. The TNFα membrane was soaked in 50% methanol in 10 mM PBS (pH7.4) for 2 minutes, then washed twice with PBS. The membrane was then incubated with 1 mM of APAC or DAS in PBS (10 mM, pH7.4) for one hour at 37° C. After washing 3 times with PBS, positive images were captured with a SYPRO Ruby filter for APAC and an Alexa 680 filter for DAS by the Chemidoc MP imaging System (Bio-Rad, USA).
(§2) A strongly positive peptide sequence was chosen for synthesis of a potential inhibitor of TNFα binding. The sequence of this TNFα-A2 peptide was NH3-YLGGVFQLEKGDRLSA-COOH. It was synthesized using a standard peptide Synthesizer (Liberty Blue, CEM Inc, USA) with Wang Resin and Fmoc amino acids (GL Biochem Ltd, Shanghai, CN). After synthesis, the peptide was purified by HPLC on a C18 column (Quadarupole 6110 LC/MS, Agilent Technology, USA) with a flow phase of 0.5% trifluroacetic acid (TFA) in acetonitrile to 0.05% TFA in H2O. The eluted peptide was detected by ultraviolet light (280 nm). The peptide inhibited binding of APAC to TNFα (FIG. 9) and of DAS to TNFα (FIG. 10).

[2] = test system: salivary TNFα; assay: Salivary TNFα levels (ELISA) and cachexia symptoms in cachexic cancer patients under oral treatment; format: in vivo, human
Description: Endogenous TNFα production can be measured by ELISA. The data reported herein used the Peprotech human TNFα kit (catalog 900-T25) following directions of the manufacturer. Alternative ELISA methods, not relying on commercial manufacturers, could be employed. […] This standard curve was used to calculate TNFα production in various organs and in saliva as presented herein.
The stabilization step may involve known methods for stabilizing TNFα, such as those described by Lee et al. (2017), incorporated herein by reference.
The detection step is designed to treat the stabilized saliva sample with an TNFα antibody in such a way as to bind essentially all of the TNFα present in the sample. The detection step may involve an immunoassay, such as an ELISA test based on an antigen-antibody reaction using TNFα as the antigen to be measured. For example, the capture antibody may be a polyclonal antibody specific for TNFα. […] In some embodiments the second TNFα antibody may be a monoclonal antibody, such as a mouse monoclonal antibody. Biotin may then be bound to the monoclonal antibody or to a third IgG antibody to which biotin is bound. The biotin levels are detected by first treating with a streptavidin solution linked with horse radish peroxidase (HRP) followed by treatment with a tetramethylbenzidine solution to detect the HRP by reading the resulting color in a spectrophotometer. An ELISA standard concentration graph of target TNFα may be obtained, for example, by absorbance detection, fluorescence detection, luminescence detection, or electrochemical detection. […] Alternatively, the immunoassay may be performed by a method capable of directly or indirectly detecting TNFα. Examples of such alternative methods include MS (Mass Spectrometry), MS/MS, and liquid chromatography.
The invention can be further understood by reference to the following examples, which are provided by way of illustration and are not meant to be limiting. The examples are of human cancer cases that had become cachexic. The patients had salivary TNFα levels ranging from 405 to 462 pg/ml. The TNFα in these cases was restored to normal levels by treatment with DAS (4,4′-diacetoxy-1,1 biphenyl-3,3′ dicarboxylic acid) or APAC for 10-21 days. […] They also support the fact that complement is required for TNFα production.

[3] = test system: TNFα; assay: Binding of APAC and DAS to TNFα / TNFα peptide
Experimental: as §1, §2

CC(=O)Oc1ccc(-c2ccc(OC(C)=O)c(C(=O)O)c2)cc1C(=O)O [DAS, 4,4′-diacetoxy-1,1 biphenyl-3,3′ dicarboxylic acid]
binding of DAS to a TNFα peptide as a function of the peptide concentration [1]: linear
symptoms of cachexia ([2]; Example 4, peritoneal carcinomatosis patient, DAS 3×100 mg/day, Day 12): subsided
salivary TNFα level ([2]; Example 4, peritoneal carcinomatosis patient, DAS 3×100 mg/day, nine days into treatment (Day 12)): 161 pg/mL
salivary TNFα level ([2]; Example 4, person, stage IV peritoneal carcinomatosis and cachexia, 394 pg/ml Day 0, 406 pg/ml before start, DAS 3×100 mg/day, five days into treatment (Day 8)): 288 pg/mL
increased salivary TNFα levels of cachexic cancer patients ([2]; oral intake): rapidly reduced to normal levels
elevated salivary TNFα over time ([2]; patient with terminal colon cancer, FIG. 14): reversed

NC(=O)NO [hydroxyurea, reference compound]
salivary TNFα level ([2]; Example 1, terminal leukemia patient, ten days after APAC discontinued (155 pg/ml on Day 20) and hydroxyurea 500 mg×2/day begun): 228 pg/mL

TNFα-A2 peptide: synthesized TNFα sequence peptide NH3-YLGGVFQLEKGDRLSA-COOH (H-YLGGVFQLEKGDRLSA-OH)
binding of APAC to TNFα in presence of the peptide ([3]; FIG. 9): inhibited
binding of DAS to TNFα in presence of the peptide ([3]; FIG. 10): inhibited
